According to patent US20180344702A1, “METHODS FOR TREATING PATIENTS WITH HEMATOLOGIC MALIGNANCIES” (Aptose Biosciences, Inc., priority 2017, published 2018):

Columns and labels:
[1] = system: Ba/F3 cells transfected with FLT3 ITD; assay: Cytotoxicity in isogenic transfected Ba/F3 cells (Table 4); format: cell-based, Murin; details: Mus musculus, BaF3, read-out: IC50 in Transfected Ba/F3 cells, FLT3 ITD
Ba/F3-ITD (FLT3-ITD) = assay: Antiproliferative activity (Table 6); format: cell-based, Murin; details: 72 h
EGFR = EGFR (Homo sapiens, UniProt P00533); assay: Key off-targets (Table 8); format: biochemical
Sequence of EGFR (P00533 25-1210): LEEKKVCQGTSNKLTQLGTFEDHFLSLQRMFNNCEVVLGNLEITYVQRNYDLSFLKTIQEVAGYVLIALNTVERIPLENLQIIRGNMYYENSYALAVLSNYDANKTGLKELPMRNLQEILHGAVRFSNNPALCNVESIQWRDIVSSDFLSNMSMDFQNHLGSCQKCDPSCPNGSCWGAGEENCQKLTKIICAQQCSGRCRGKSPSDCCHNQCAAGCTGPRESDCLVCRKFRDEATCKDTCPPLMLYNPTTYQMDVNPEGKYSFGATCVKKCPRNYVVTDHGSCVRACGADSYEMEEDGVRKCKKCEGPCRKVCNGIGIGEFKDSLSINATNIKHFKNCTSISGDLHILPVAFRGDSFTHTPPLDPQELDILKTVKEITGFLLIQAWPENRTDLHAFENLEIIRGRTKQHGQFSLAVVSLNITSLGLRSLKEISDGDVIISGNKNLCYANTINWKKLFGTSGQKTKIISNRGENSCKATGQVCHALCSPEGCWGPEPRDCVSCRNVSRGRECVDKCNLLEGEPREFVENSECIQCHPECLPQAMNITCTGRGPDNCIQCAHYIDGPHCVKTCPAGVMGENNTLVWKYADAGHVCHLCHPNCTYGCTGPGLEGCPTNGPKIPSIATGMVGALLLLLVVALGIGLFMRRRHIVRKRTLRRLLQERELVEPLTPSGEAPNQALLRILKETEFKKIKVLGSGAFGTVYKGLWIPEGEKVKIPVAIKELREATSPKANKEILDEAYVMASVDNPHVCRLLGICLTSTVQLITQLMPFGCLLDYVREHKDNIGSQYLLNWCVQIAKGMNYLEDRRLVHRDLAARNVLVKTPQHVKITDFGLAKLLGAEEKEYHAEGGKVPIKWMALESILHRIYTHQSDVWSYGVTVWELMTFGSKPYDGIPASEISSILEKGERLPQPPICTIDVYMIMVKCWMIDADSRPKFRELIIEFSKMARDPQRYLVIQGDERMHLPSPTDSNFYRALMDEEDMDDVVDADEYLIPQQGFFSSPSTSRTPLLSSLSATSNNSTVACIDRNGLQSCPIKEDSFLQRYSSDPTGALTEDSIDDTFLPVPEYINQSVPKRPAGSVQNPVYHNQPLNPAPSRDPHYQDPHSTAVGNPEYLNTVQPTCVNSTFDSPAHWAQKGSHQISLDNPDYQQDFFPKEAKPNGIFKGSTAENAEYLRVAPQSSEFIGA

[2] = system: Ba/F3 cells transfected with FLT3 ITD-F691L; assay: Cytotoxicity in isogenic transfected Ba/F3 cells (Table 4); format: cell-based, Murin; details: Mus musculus, BaF3, read-out: IC50 in Transfected Ba/F3 cells, FLT3 ITD-F691L
MHH-Call4 = assay: Cytotoxicity, MTS cell viability; format: cell-based; details: MHHCALL4, 72 h, B-ALL, 3 days MTS
Experimental: (§1) Cells were seeded in a 96 well plate and treated with either vehicle (DMSO) or compound 7 at 10 different concentrations for 3 days at 37° C. and 5% CO2. Cell viability was assessed using CellTiter 96 AQueous one solution (MTS Promega Cat#G3581), and IC50 values calculated using GraphPad Prism 7 software.

SU-DHL2 = assay: Cytotoxicity, MTS cell viability; format: cell-based; details: Homo sapiens, SU-DHL-2, 72 h, ABC-DLBCL, 3 days MTS
Experimental: as §1

L1236 = assay: Cytotoxicity, MTS cell viability; format: cell-based; details: L-1236, 72 h, HL, 3 days MTS
Experimental: as §1

U2932 = assay: Cytotoxicity, MTS cell viability; format: cell-based; details: Homo sapiens, 72 h, ABC-DLBCL, 3 days MTS
Experimental: as §1

DOHH2 = assay: Cytotoxicity, MTS cell viability; format: cell-based; details: Homo sapiens, DOHH-2, 72 h, FL, 3 days MTS
Experimental: as §1

OCI-LY3 = assay: Cytotoxicity, MTS cell viability; format: cell-based; details: Homo sapiens, 72 h, ABC-DLBCL, 3 days MTS
Experimental: as §1

BJAB = assay: Cytotoxicity, MTS cell viability; format: cell-based; details: Homo sapiens, 72 h, GCB-DLBCL, 3 days MTS
Experimental: as §1

Mino = assay: Apoptosis in B-cell malignancies (annexin V/PI, cleaved PARP); format: cell-based, human; details: increasing concentrations
Experimental: Mechanistic studies were undertaken to determine the mechanism of action for Compound 7. The apoptotic state of treated cells was determined by staining with annexin V and propidium iodide (PI), then analysis with the BD Accuri C6 flow cytometer, whereby live cells are annexin V/PI negative, early apoptotic cells are annexin V positive and late apoptotic cells are annexin V and PI positive. In addition production of cleaved PARP, a classic apoptotic marker, was assayed by western blotting with specific antibodies.

[3] = system: MOLM13 (FLT3-ITD, t(9:11)); assay: Antiproliferative activity (Table 6); format: cell-based; details: Homo sapiens, MOLM-13, 72 h
THP-1 (FLT3-WT, t(9:11)) = assay: Antiproliferative activity (Table 6); format: cell-based; details: Homo sapiens, THP-1, 72 h
[4] = system: Aurora kinase in Mino, Ramos and SU-DHL6; assay: Aurora kinase inhibition in B-cell lines (Western blot); format: cell-based; details: FIGS. 13A-13C
Experimental: Inhibition of Aurora kinase activity was measured by western blotting for phosphorylation levels of Aurora kinases or and down-stream targets and by cell cycle and DNA content analysis. Whole cell extracts from Compound 7 treated cells were resolved by gel electrophoresis and transferred to nitrocellulose membranes and inhibition of Aurora kinase A/B and H3S10 phosphorylation was detected with specific antibodies. DNA synthesis and cell cycle phase was assessed by staining compound 7 of vehicle treated cells with 5-ethynyl-2′deoxyuridine (Edu) Alexa Fluor 488 and PI.

[5] = system: Ba/F3 cells transfected with FLT3 D835Y; assay: Cytotoxicity in isogenic transfected Ba/F3 cells (Table 4); format: cell-based, Murin; details: Mus musculus, BaF3, read-out: IC50 in Transfected Ba/F3 cells, FLT3 D835Y
FLT3(ITD) = FLT3(ITD) (Homo sapiens, UniProt P36888); assay: Inhibition of FLT3 mutants, kinase IC50; format: biochemical; design: IC50; other: FLT3(ITD)
Experimental: RBC HotSpot Kinase Assay Protocol:
Reagents used: Base Reaction buffer; 20 mM Hepes (pH 7.5), 10 mM MgCl2, 1 mM EGTA, 0.02% Brij35, 0.02 mg/ml BSA, 0.1 mM Na3VO4, 2 mM DTT, 1% DMSO. Required cofactors are added individually to each kinase reaction.
Compound 7 was dissolved in 100% DMSO to a specified concentration. The serial dilution was conducted by epMotion 5070 in DMSO. The substrate was freshly prepared in Reaction Buffer and any required cofactors to the substrate solution were added. The kinase was added to the solution and gently mixed. Compound 7 was added in 100% DMSO into the kinase reaction mixture by Acoustic technology (Echo550; nanoliter range), and incubated for 20 min at room temperature. ^33P-ATP (Specific activity 10 μCi/μl) was added into the reaction mixture to initiate the reaction, which was incubated for 2 hours, whereupon kinase activity was detected by the filter-binding method.

MV411 cells = assay: Cell-cycle analysis (EdU/PI flow cytometry); format: cell-based, human; details: dose-dependent
Experimental: Cell-cycle analysis: Cells were treated with vehicle, DMSO or Compound 7 and were stained with PI and EdU, and then analyzed by flow cytometry to determine the phases of cell cycle.

Kasumi-1 (FLT3-WT) = assay: Antiproliferative activity (Table 6); format: cell-based; details: Homo sapiens, Kasumi 1, 72 h
Ba/F3-D835G (FLT3-D835G) = assay: Antiproliferative activity (Table 6); format: cell-based, Murin; details: 72 h
[6] = Pharmacokinetic study in rat; format: in vivo
[7] = system: Aurora kinase in MV4-11 cells; assay: Cell signaling Western blot; format: cell-based, human; details: FIG. 24
Experimental: Immunoblot assays: Cells were treated with Compound 7 at various concentrations and collected for cell lysates. The total and phosphorylated levels of the indicated proteins were determined by Western Blot.

FLT3(D835H) = target: T1, FLT3(D835H) (Homo sapiens, UniProt P36888, D835H); assay: Binding constant (Kd), kinase-tagged phage / affinity bead competition binding with qPCR readout
T1 construct: made in house; host or cells: E. coli BL21-derived host (T7 phage) or HEK-293

`Cc1cnc(-c2ccc(-c3ccc(NC(=O)Nc4c(F)cc(F)cc4F)cc3F)c3c2C(=O)NC3)[nH]1` [Compound 7, 1-{3-fluoro-4-[7-(5-methyl-1H-imidazol-2-yl)-1-oxo-2,3-dihydro-1H-isoindol-4-yl]-phenyl}-3-(2,4,6-trifluorophenyl)urea] showed an IC50 [1] of 0.5 nM, an IC50 (Ba/F3-ITD (FLT3-ITD)) of 0.3 nM and an IC50 (EGFR) of over 1000 nM. For the same compound, the “Inhibition of EGFR (in words)” value (EGFR) was “no inhibition”, the IC50 [2] was 10 nM and the IC50 (MHH-Call4) was 27.8 nM. It also gave an IC50 (SU-DHL2) of 744 nM, an IC50 (L1236) of 7820 nM and an IC50 (U2932) of 632 nM. The IC50 (DOHH2) was 2.94 nM, the IC50 (OCI-LY3) was 830 nM and the IC50 (BJAB) was 882 nM. For the same compound, the “Apoptosis induction versus ibrutinib” value (Mino) was “induced apoptosis more effectively than ibrutinib at all concentrations tested”, the IC50 [3] was 0.82 nM and the IC50 (THP-1 (FLT3-WT, t(9:11))) was 3.88 nM. The “Aurora kinase inhibition (phosphorylation patterns)” value [4] was “effective as an Aurora Kinase inhibitor”, the IC50 [5] was 8.8 nM and the IC50 (FLT3(ITD)) was 0.817 nM. The G0/G1 cell-cycle arrest (MV411 cells) was “induce G0/G1 cell-cycle arrest”, the IC50 (Kasumi-1 (FLT3-WT)) was 22 nM and the IC50 (Ba/F3-D835G (FLT3-D835G)) was 0.12 nM. For the same compound, the Exposure ([6]; 2 mg/kg administered by i.v.) was “Reasonable exposure”, the AUC ([6]; administered orally, FIG. 5) was “AUC improves in a dose-dependent manner” and the “Aurora kinase activity and signaling (Western blot)” value [7] was “inhibits Aurora kinase activity and signaling”. The Kd (FLT3(D835H)) was 2.2 nM.
